Experimental data published in patent publication US8674136B2, “Aromatic butan-2-ol compounds and preparation and uses thereof” (Institute of Pharmacology and Toxicology Academy of …, priority 2010, dated 2014).
Values after ≈ are worked out from the molar mass of the structure shown.

Tests used:
[1] = tested on: clinical drug-resistant strain 004 of mycobacterium tuberculosis; assay: microbe, parasite or virus in culture; assay type: cell-based; conditions: read-out: MIC, M.tb stains (drug-resistant strains) 004
[2] = tested on: clinical drug-resistant strain 040 of mycobacterium tuberculosis; assay: microbe, parasite or virus in culture; assay type: cell-based; conditions: read-out: MIC, M.tb stains (drug-resistant strains) 40

Structure (SMILES)	MIC [1]	MIC [2]
COc1cc2ccc(Br)cc2cc1C(c1cccc(Cl)c1)C(O)(CCN(C)C)c1cccc2ccccc12 (stereo not shown) [Compound 35, 1-(3-chlorophenyl)-2-(1-naphthyl)-1-[2-(7-bromo-3-methoxy)naphthyl]-4-(N,N-dimethylamino)-butan-2-ol]	0.5 µg/mL (≈ 0.849 µM)	0.125 µg/mL (≈ 0.212 µM)
COc1cc2ccc(Br)cc2cc1C(c1cccc(C)c1)C(O)(CCN(C)C)c1cccc2ccccc12 (stereo not shown) [Compound 37, 1-(3-methylphenyl)-2-(1-naphthyl)-1-[2-(7-bromo-3-methoxy)naphthyl]-4-(N,N-dimethylamino)-butan-2-ol]	0.5 µg/mL (≈ 0.879 µM)	0.125 µg/mL (≈ 0.22 µM)
